Values quoted from earlier work, collected in patent US20060099690A1, “Extraction, purification and conversion of flavonoids from plant biomass” (Her Majesty the Queen in Right of Canada, as Repre, priority 2002, published 2006).

How the values were obtained:
[1] = four hours after a meal; hydrolyzed plasma; 3'- and 4'-methylquercetin
[2] = tested on: mouse hippocampal cell line HT-22 and rat primary neurons; conditions: HT-22 cells and rat primary neurons
pain transmission = conditions: antinociceptive activity
serum triglycerides = conditions: 0.5% quercetin in diet; mice or rats

| SMILES | total concentration of metabolites in the plasma [1] | protection from oxidative stress caused by glutamate [2] | dose with the same effect as 2.5 mg of morphine sulfate/Kg (pain transmission) [mg/Kg body weight] | effect on serum triglycerides (serum triglycerides) |
| --- | --- | --- | --- | --- |
| C[C@@H]1O[C@@H](OC[C@H]2O[C@@H](Oc3c(-c4ccc(O)c(O)c4)oc4cc(O)cc(O)c4c3=O)[C@H](O)[C@@H](O)[C@@H]2O)[C@H](O)[C@H](O)[C@H]1O [rutin] | 2.5 µM | – | – | – |
| O=c1c(O)c(-c2ccc(O)cc2)oc2cc(O)cc(O)c12 [kaempferol] | – | quite protective | – | – |
| O=c1c(O)c(-c2ccc(O)c(O)c2)oc2cc(O)ccc12 [fisetin] | – | quite protective | – | – |
| C[C@@H]1O[C@@H](Oc2c(-c3ccc(O)c(O)c3)oc3cc(O)cc(O)c3c2=O)[C@H](O)[C@H](O)[C@H]1O [quercitrin, quercetin 3-rhamnoside, reference compound] | failed to detect any metabolites | – | – | – |
| O=c1cc(-c2ccc(O)cc2)oc2cc(O)cc(O)c12 [apigenim] | – | inactive | – | – |
| O=c1c(O)c(-c2ccc(O)c(O)c2)oc2cc(O)cc(O)c12 [quercetin] | 11.2 µM | quite protective | 50 | significant lowering |
| O=c1c(O[C@@H]2O[C@H](CO)[C@@H](O)[C@H](O)[C@H]2O)c(-c2ccc(O)c(O)c2)oc2cc(O)cc(O)c12 [isoquercitrin, quercetin-3-O-beta glycoside] | 33.2 µM | – | – | – |
